This note sets out measurements from the NIST ThermoML archive (doi:10.1021/je7004402).

Molecules are shown by their SMILES. ± gives the expanded uncertainty stated by the source.

A short description of data set [1]: refractive index (Na D-line) (dimensionless). The note with it: 298.15 K; 101.33 kPa; Liquid; Standard Abbe refractometry.
The conditions of data set [2]: Liquid; Ebulliometric method (Recirculating still).

With `C=COC(C)=O` [vinyl acetate], the refractive index in data set [1] is recorded as 1.39236 ± 0.00053. In data set [2], the Normal boiling temperature was determined as 72.80 ± 0.2 °C.

With `CC(C)c1ccccc1` [isopropylbenzene], the refractive index in data set [1] is given as 1.48829 ± 0.00053. The Normal boiling temperature in data set [2] is 152.29 ± 0.2 °C.

`CCOC=O` [ethyl methanoate]: the refractive index in data set [1] was 1.35901 ± 0.00063. Besides, in data set [2], the Normal boiling temperature turned out to be 54.17 ± 0.2 °C.

For orientation: refractive index means the speed of light in vacuum divided by its phase velocity in the sample.
